Measurements taken from patent US20220370496A1, “HER3 PULSED DC1 THERAPY” (H. LEE MOFFITT CANCER CENTER AND RESEARCH INSTITUTE, INC., priority 2019, published 2022).

Test system: MT901
Assay: Intratumoral HER3-DC1 in combination with Taxol
Type: in vivo, mouse
Settings: 30 days after tumor cells were transferred
Experimental: Taxol alone group received two injections of taxol. DC alone group received DCs once weekly beginning on day 5. DC+Taxol group received two injections of taxol before beginning DC treatment.
MT901, a mouse TNBC cell line, was injected in Balb/c mice and treatment began once tumors were palpable. HER3-DC1 vaccine was injected intratumorally once a week for six weeks. HER3 immune responses were measured in spleens, lymph nodes, and tumors post-vaccination. […] To investigate how the peptides would perform in the context of a therapeutic treatment of an established cancer, 5×10^5 MT901 cells were delivered to a Balb/c mouse s.c. and 5 days later weekly administration of 1×10^6 HER3 pulsed DC cells began and continued for six weeks (FIG. 8). […] To determine if the therapeutic or preventive effect could be improved in combination with an anti-cancer agent, mice were administered HER3-pulsed DC1 in combination with Taxol.

CC(=O)O[C@H]1C(=O)[C@@]2(C)[C@H]([C@H](OC(=O)c3ccccc3)[C@]3(O)C[C@H](OC(=O)[C@H](O)[C@@H](NC(=O)c4ccccc4)c4ccccc4)C(C)=C1C3(C)C)[C@]1(OC(C)=O)CO[C@@H]1C[C@@H]2O [taxol, Paclitaxel] was tested. Which established tumors did it give?
The established tumors was “had established tumors”.
